ChEMBL document CHEMBL1201862, “PubChem BioAssay data set” (2004)
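These data come from cells grown in 96-well plates and exposed to compound for 48 hours at five concentrations. GI50 is the concentration that inhibits growth by half.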 Activity calls are given as the source filed them. Rule as the data show it: active = GI50 up to about 1.1 µM and inactive = higher.

What was measured:
Test in all cases: inhibition of tumour cell growth, NCI panel, 48 h
[1] = tested on: T47D
[2] = tested on: CAKI-1
[3] = tested on: SW-620
[4] = tested on: DU-145
[5] = tested on: A498
[6] = tested on: MDA-MB-231
[7] = tested on: SF-295
[8] = tested on: HCT-116
[9] = tested on: OVCAR-8
[10] = tested on: RPMI-8226
[11] = tested on: UACC-257
[12] = tested on: OVCAR-3
[13] = tested on: OVCAR-5
[14] = tested on: HL-60
[15] = tested on: HOP-92
[16] = tested on: Malme-3M
[17] = tested on: MDA-MB-435
[18] = tested on: HOP-62
[19] = tested on: SK-OV-3
[20] = tested on: NCI-H23

Row | Structure (SMILES) | GI50 [1] | GI50 [2] | GI50 [3] | GI50 [4] | GI50 [5] | GI50 [6] | GI50 [7] | GI50 [8] | GI50 [9] | GI50 [10] | GI50 [11] | GI50 [12] | GI50 [13] | GI50 [14] | GI50 [15] | GI50 [16] | GI50 [17] | GI50 [18] | GI50 [19] | GI50 [20]
1 | Nc1ccc2nc(-c3ccccn3)c(-c3ccccn3)nc2c1 | > 100 µM (inactive) | > 100 µM (inactive) | > 100 µM (inactive) | > 100 µM (inactive) | > 100 µM (inactive) | > 100 µM (inactive) | > 100 µM (inactive) | > 100 µM (inactive) | > 100 µM (inactive) | > 100 µM (inactive) | > 100 µM (inactive) | > 100 µM (inactive) | > 100 µM (inactive) | > 100 µM (inactive) | > 100 µM (inactive) | > 100 µM (inactive) | > 100 µM (inactive) |  |  | 
2 | Cc1nnc(-n2c(O)cc(=O)n(-c3ccccc3)c2=S)nc1/C=C/c1ccc(N(C)C)cc1 | 6.62 µM (inactive) | 5.7 µM (inactive) | 12.9 µM (inactive) | 26.1 µM (inactive) | 27.1 µM (inactive) | > 35.6 µM (inactive) | 12.9 µM (inactive) | 11.9 µM (inactive) | 9.59 µM (inactive) | 11.2 µM (inactive) | 15.5 µM (inactive) |  | 27.4 µM (inactive) | 2.7 µM (inactive) | 21.5 µM (inactive) | 2.69 µM (inactive) | 5.62 µM (inactive) | 5.86 µM (inactive) | 11.7 µM (inactive) | 8.36 µM (inactive)
3 | O=C(OCCC12CC3CC(CC(C3)C1)C2)c1ccc(NCc2cc(O)ccc2O)cc1 | 0.214 µM (active) | 0.363 µM (active) | 1.63 µM (inactive) | 3.3 µM (inactive) | 1.9 µM (inactive) | 1.88 µM (inactive) | 2.02 µM (inactive) | 1.26 µM (inactive) |  | 0.172 µM (active) | 0.604 µM (active) | 0.239 µM (active) |  | 0.176 µM (active) | 3.74 µM (inactive) | 1.85 µM (inactive) | 1.26 µM (inactive) | 3.56 µM (inactive) | 2.91 µM (inactive) | 0.689 µM (active)
4 | O=C(Cc1cc(=O)oc2cc(O)ccc12)N/N=C/c1ccc(N(CCCl)CCCl)cc1 | > 10 µM (inactive) | 12.7 µM (inactive) | 34.1 µM (inactive) | 19.6 µM (inactive) | 22.3 µM (inactive) | 18.5 µM (inactive) | 18.1 µM (inactive) | 16.6 µM (inactive) | 15.1 µM (inactive) | 16.4 µM (inactive) | 22.1 µM (inactive) | 18.2 µM (inactive) | 25.6 µM (inactive) | 14.5 µM (inactive) | 20.8 µM (inactive) | 20.5 µM (inactive) | 19.8 µM (inactive) | 23.7 µM (inactive) |  | 22.3 µM (inactive)
5 | Cc1ccc2c(c1C)C(=O)/C(=C/c1cccc(C)c1C(=O)O)C2 | > 100 µM (inactive) |  |  | > 100 µM (inactive) | > 45.1 µM (inactive) | > 62.7 µM (inactive) | > 100 µM (inactive) | 48.4 µM (inactive) | 86.5 µM (inactive) | 71.3 µM (inactive) | 57.9 µM (inactive) | 71.6 µM (inactive) | > 100 µM (inactive) | 48.6 µM (inactive) | 19.2 µM (inactive) | 71 µM (inactive) | 52.7 µM (inactive) | > 55.7 µM (inactive) | 59.8 µM (inactive) | > 100 µM (inactive)
6 | CN(C)CCc1c2c(nc3ccccc13)C(=O)c1cccnc1C2=O | 1.83 µM (inactive) | 0.582 µM (active) | 0.0873 µM (active) | 0.126 µM (active) | 0.597 µM (active) | 0.385 µM (active) | 0.203 µM (active) | 0.0838 µM (active) | 0.184 µM (active) | 0.488 µM (active) | 0.214 µM (active) | 0.0513 µM (active) | 1.18 µM (inactive) | 0.0486 µM (active) | 1.49 µM (inactive) | 0.49 µM (active) | 0.331 µM (active) |  | 0.479 µM (active) | 0.322 µM (active)
